According to PMC11604427 (Frontiers in Pharmacology, 2024):

Assays:
[1] = target: T1, Human recombinant HDAC2 enzyme (Homo sapiens, UniProt Q92769); assay: HDAC2 fluorescence enzyme inhibition assay (Boc-Lys(acetyl)-AMC); type: biochemical
T1 construct: purchased Abcam
Protocol: Firstly, a 96-well plate was loaded with a blend comprising 10 μL of HDAC2 enzyme solution and 50 μL of the test compounds at assorted concentrations, followed by incubation at a temperature of 37°C for a duration of 5 min. Subsequently, 10 μL of the fluorescent substrate Boc-Lys (acetyl)-AMC was added and continued for 30 min. Finally, 100 μL of developer containing trypsin and TSA was injected into each well and incubated for 20 min.

HepG2 cells = assay: RT-PCR analysis; type: cell-based, human
Protocol: Total RNA was extracted from cells using Trizol reagent (Invitrogen, Carlsbad, CA) and reverse transcribed into cDNA with the PrimeScript RT reagent kit (Takara Bio, Otsu, Japan). RT-PCR was performed on the Mx3000P system (Agilent Technologies, Santa Clara, CA) with TB Green Premix Ex Taq II (Takara Bio). Relative gene expression was determined by the 2^−ΔΔCt method.

MERTK = target: T2, MERTK (Homo sapiens, UniProt Q12866); assay: SelectScreen kinase selectivity assay; type: biochemical
T2 construct: purchased Thermo Fisher Scientific (SelectScreen service)
Protocol: (§1) The kinase selectivity analysis of PKHD-5 was performed using the SelectScreen kinase analysis service provided by Thermo Fisher Scientific. The experiment initially involved the preparation of a series of inhibitor solutions at varying concentrations, which were then reacted with various kinase targets under standardized conditions to calculate the percentage inhibition for each test solution. Ultimately, the IC50 values were calculated based on the concentration-inhibition curves by fitting a four-parameter logistic curve, thereby assessing the potency and selectivity of the inhibitors. The analysis results are detailed in Supplementary Table S1.

EPHA8 = target: T3, EPHA8 (Homo sapiens, UniProt P29322); assay: SelectScreen kinase selectivity assay; type: biochemical
T3 construct: purchased Thermo Fisher Scientific (SelectScreen service)
Protocol: as §1

INSR = target: T4, INSR (Homo sapiens, UniProt P06213); assay: SelectScreen kinase selectivity assay; type: biochemical
T4 construct: purchased Thermo Fisher Scientific (SelectScreen service)
Protocol: as §1

ABL2 = target: T5, ABL2 (Homo sapiens, UniProt P42684); assay: SelectScreen kinase selectivity assay; type: biochemical
T5 construct: purchased Thermo Fisher Scientific (SelectScreen service)
Protocol: as §1

KDR = target: T6, KDR (Homo sapiens, UniProt P35968); assay: SelectScreen kinase selectivity assay; type: biochemical
T6 construct: purchased Thermo Fisher Scientific (SelectScreen service)
Protocol: as §1

ZAK = target: T7, ZAK (Homo sapiens, UniProt Q9NYL2); assay: SelectScreen kinase selectivity assay; type: biochemical
T7 construct: purchased Thermo Fisher Scientific (SelectScreen service)
Protocol: as §1

BTK = target: T8, BTK (Homo sapiens, UniProt Q06187); assay: SelectScreen kinase selectivity assay; type: biochemical
T8 construct: purchased Thermo Fisher Scientific (SelectScreen service)
Protocol: as §1

BLK = target: T9, BLK (Homo sapiens, UniProt P51451); assay: SelectScreen kinase selectivity assay; type: biochemical
T9 construct: purchased Thermo Fisher Scientific (SelectScreen service)
Protocol: as §1

ROS1 = target: T10, ROS1 (Homo sapiens, UniProt P08922); assay: SelectScreen kinase selectivity assay; type: biochemical
T10 construct: purchased Thermo Fisher Scientific (SelectScreen service)
Protocol: as §1

CDK1 = target: T11, CDK1 (Homo sapiens, UniProt P06493); assay: SelectScreen kinase selectivity assay; type: biochemical
T11 construct: purchased Thermo Fisher Scientific (SelectScreen service)
Protocol: as §1

INSRR = target: T12, INSRR (Homo sapiens, UniProt P14616); assay: SelectScreen kinase selectivity assay; type: biochemical
T12 construct: purchased Thermo Fisher Scientific (SelectScreen service)
Protocol: as §1

PDGFRA = target: T13, PDGFRA (Homo sapiens, UniProt P16234); assay: SelectScreen kinase selectivity assay; type: biochemical
T13 construct: purchased Thermo Fisher Scientific (SelectScreen service)
Protocol: as §1

DDR1 = target: T14, DDR1 (Homo sapiens, UniProt Q08345); assay: SelectScreen kinase selectivity assay; type: biochemical
T14 construct: purchased Thermo Fisher Scientific (SelectScreen service)
Protocol: as §1

FGFR4 = target: T15, FGFR4 (Homo sapiens, UniProt P22455); assay: SelectScreen kinase selectivity assay; type: biochemical
T15 construct: purchased Thermo Fisher Scientific (SelectScreen service)
Protocol: as §1

EPHA7 = target: T16, EPHA7 (Homo sapiens, UniProt Q15375); assay: SelectScreen kinase selectivity assay; type: biochemical
T16 construct: purchased Thermo Fisher Scientific (SelectScreen service)
Protocol: as §1

EPHA2 = target: T17, EPHA2 (Homo sapiens, UniProt P29317); assay: SelectScreen kinase selectivity assay; type: biochemical
T17 construct: purchased Thermo Fisher Scientific (SelectScreen service)
Protocol: as §1

ALK = target: T18, ALK (Homo sapiens, UniProt Q9UM73); assay: SelectScreen kinase selectivity assay; type: biochemical
T18 construct: purchased Thermo Fisher Scientific (SelectScreen service)
Protocol: as §1

IGF1R = target: T19, IGF1R (Homo sapiens, UniProt P08069); assay: SelectScreen kinase selectivity assay; type: biochemical
T19 construct: purchased Thermo Fisher Scientific (SelectScreen service)
Protocol: as §1

EPHA1 = target: T20, EPHA1 (Homo sapiens, UniProt P21709); assay: SelectScreen kinase selectivity assay; type: biochemical
T20 construct: purchased Thermo Fisher Scientific (SelectScreen service)
Protocol: as §1

LYN = target: T21, LYN (Homo sapiens, UniProt P07948); assay: SelectScreen kinase selectivity assay; type: biochemical
T21 construct: purchased Thermo Fisher Scientific (SelectScreen service)
Protocol: as §1

PLK3 = target: T22, PLK3 (Homo sapiens, UniProt Q9H4B4); assay: SelectScreen kinase selectivity assay; type: biochemical
T22 construct: purchased Thermo Fisher Scientific (SelectScreen service)
Protocol: as §1

FRK = target: T23, FRK (Homo sapiens, UniProt P42685); assay: SelectScreen kinase selectivity assay; type: biochemical
T23 construct: purchased Thermo Fisher Scientific (SelectScreen service)
Protocol: as §1

FGFR2 = target: T24, FGFR2 (Homo sapiens, UniProt P21802); assay: SelectScreen kinase selectivity assay; type: biochemical
T24 construct: purchased Thermo Fisher Scientific (SelectScreen service)
Protocol: as §1

EPHB1 = target: T25, EPHB1 (Homo sapiens, UniProt P54762); assay: SelectScreen kinase selectivity assay; type: biochemical
T25 construct: purchased Thermo Fisher Scientific (SelectScreen service)
Protocol: as §1

NTRK1 = target: T26, NTRK1 (Homo sapiens, UniProt P04629); assay: SelectScreen kinase selectivity assay; type: biochemical
T26 construct: purchased Thermo Fisher Scientific (SelectScreen service)
Protocol: as §1

AXL = target: T27, AXL (Homo sapiens, UniProt P30530); assay: SelectScreen kinase selectivity assay; type: biochemical
T27 construct: purchased Thermo Fisher Scientific (SelectScreen service)
Protocol: as §1

YES1 = target: T28, YES1 (Homo sapiens, UniProt P07947); assay: SelectScreen kinase selectivity assay; type: biochemical
T28 construct: purchased Thermo Fisher Scientific (SelectScreen service)
Protocol: as §1

PIM1 = target: T29, PIM1 (Homo sapiens, UniProt P11309); assay: SelectScreen kinase selectivity assay; type: biochemical
T29 construct: purchased Thermo Fisher Scientific (SelectScreen service)
Protocol: as §1

RAF1 = target: T30, RAF1 (Homo sapiens, UniProt P04049, Y340D/Y341D); assay: SelectScreen kinase selectivity assay; type: biochemical
T30 construct: purchased Thermo Fisher Scientific (SelectScreen service)
Protocol: as §1

ERBB2 = target: T31, ERBB2 (Homo sapiens, UniProt P04626); assay: SelectScreen kinase selectivity assay; type: biochemical
T31 construct: purchased Thermo Fisher Scientific (SelectScreen service)
Protocol: as §1

HCK = target: T32, HCK (Homo sapiens, UniProt P08631); assay: SelectScreen kinase selectivity assay; type: biochemical
T32 construct: purchased Thermo Fisher Scientific (SelectScreen service)
Protocol: as §1

EPHA4 = target: T33, EPHA4 (Homo sapiens, UniProt P54764); assay: SelectScreen kinase selectivity assay; type: biochemical
T33 construct: purchased Thermo Fisher Scientific (SelectScreen service)
Protocol: as §1

CSF1R = target: T34, CSF1R (Homo sapiens, UniProt P07333); assay: SelectScreen kinase selectivity assay; type: biochemical
T34 construct: purchased Thermo Fisher Scientific (SelectScreen service)
Protocol: as §1

EPHA3 = target: T35, EPHA3 (Homo sapiens, UniProt P29320); assay: SelectScreen kinase selectivity assay; type: biochemical
T35 construct: purchased Thermo Fisher Scientific (SelectScreen service)
Protocol: as §1

T1 sequence (Q92769 whole entry): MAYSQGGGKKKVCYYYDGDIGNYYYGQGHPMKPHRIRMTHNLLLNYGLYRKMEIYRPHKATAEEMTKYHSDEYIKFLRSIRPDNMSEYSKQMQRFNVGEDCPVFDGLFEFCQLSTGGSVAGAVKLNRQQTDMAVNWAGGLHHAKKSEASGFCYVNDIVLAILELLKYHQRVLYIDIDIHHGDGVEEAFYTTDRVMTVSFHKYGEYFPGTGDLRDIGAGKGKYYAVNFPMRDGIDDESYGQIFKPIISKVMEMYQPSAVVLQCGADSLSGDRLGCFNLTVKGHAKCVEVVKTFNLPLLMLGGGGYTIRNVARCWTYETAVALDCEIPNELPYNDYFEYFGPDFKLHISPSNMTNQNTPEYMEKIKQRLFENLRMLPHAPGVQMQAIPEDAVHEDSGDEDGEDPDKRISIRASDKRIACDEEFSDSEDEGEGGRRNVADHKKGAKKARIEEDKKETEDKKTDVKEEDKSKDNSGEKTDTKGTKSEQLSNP
T2 sequence (Q12866 21-999): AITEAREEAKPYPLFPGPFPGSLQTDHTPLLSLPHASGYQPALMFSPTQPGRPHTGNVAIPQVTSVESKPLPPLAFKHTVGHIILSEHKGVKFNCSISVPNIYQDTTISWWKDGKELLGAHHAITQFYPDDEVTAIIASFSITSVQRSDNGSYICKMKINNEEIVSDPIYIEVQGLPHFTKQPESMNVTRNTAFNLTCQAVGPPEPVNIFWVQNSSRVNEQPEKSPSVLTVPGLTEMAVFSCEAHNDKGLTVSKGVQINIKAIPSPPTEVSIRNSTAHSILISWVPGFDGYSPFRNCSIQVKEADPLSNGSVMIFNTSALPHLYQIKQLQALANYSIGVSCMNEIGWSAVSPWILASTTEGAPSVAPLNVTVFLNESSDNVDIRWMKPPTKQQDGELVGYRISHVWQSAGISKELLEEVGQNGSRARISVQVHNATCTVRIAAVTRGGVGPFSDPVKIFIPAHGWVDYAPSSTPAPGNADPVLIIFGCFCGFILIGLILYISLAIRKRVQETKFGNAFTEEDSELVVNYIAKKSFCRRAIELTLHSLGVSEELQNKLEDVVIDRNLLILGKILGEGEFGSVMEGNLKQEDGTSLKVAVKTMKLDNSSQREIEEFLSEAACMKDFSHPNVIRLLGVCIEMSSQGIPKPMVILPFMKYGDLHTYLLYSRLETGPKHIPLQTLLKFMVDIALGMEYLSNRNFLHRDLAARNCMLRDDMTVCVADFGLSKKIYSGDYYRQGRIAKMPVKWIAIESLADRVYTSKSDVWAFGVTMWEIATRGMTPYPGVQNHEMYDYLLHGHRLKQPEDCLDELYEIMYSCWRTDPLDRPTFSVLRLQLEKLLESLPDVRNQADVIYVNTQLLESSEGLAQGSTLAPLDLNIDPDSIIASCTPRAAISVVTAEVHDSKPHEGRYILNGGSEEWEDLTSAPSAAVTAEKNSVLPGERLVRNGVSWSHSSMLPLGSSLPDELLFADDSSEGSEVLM
T16 sequence (Q15375 28-998): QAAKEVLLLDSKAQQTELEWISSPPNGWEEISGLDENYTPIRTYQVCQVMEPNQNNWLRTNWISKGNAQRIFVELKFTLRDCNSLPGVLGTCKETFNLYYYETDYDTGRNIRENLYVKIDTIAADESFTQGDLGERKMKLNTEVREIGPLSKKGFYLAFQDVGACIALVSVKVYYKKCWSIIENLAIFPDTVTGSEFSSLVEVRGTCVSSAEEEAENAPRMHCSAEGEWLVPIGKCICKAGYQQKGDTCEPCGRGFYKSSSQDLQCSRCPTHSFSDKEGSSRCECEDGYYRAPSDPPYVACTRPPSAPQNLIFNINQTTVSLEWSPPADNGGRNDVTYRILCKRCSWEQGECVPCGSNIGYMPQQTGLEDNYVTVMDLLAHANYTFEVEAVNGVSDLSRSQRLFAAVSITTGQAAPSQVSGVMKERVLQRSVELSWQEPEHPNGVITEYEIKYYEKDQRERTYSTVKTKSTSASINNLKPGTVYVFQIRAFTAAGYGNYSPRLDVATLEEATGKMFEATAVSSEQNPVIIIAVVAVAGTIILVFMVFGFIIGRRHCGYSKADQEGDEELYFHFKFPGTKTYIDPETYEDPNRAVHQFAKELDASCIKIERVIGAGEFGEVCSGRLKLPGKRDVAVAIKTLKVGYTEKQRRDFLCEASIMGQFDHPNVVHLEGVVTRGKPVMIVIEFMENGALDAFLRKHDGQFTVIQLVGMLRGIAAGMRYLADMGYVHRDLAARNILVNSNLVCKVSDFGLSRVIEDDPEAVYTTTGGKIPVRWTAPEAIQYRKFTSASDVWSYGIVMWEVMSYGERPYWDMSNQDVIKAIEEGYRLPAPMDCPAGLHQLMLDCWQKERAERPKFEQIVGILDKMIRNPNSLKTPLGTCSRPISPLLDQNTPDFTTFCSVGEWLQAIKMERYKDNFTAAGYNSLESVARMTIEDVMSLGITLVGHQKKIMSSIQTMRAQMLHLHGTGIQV
T10 sequence (P08922 28-2347): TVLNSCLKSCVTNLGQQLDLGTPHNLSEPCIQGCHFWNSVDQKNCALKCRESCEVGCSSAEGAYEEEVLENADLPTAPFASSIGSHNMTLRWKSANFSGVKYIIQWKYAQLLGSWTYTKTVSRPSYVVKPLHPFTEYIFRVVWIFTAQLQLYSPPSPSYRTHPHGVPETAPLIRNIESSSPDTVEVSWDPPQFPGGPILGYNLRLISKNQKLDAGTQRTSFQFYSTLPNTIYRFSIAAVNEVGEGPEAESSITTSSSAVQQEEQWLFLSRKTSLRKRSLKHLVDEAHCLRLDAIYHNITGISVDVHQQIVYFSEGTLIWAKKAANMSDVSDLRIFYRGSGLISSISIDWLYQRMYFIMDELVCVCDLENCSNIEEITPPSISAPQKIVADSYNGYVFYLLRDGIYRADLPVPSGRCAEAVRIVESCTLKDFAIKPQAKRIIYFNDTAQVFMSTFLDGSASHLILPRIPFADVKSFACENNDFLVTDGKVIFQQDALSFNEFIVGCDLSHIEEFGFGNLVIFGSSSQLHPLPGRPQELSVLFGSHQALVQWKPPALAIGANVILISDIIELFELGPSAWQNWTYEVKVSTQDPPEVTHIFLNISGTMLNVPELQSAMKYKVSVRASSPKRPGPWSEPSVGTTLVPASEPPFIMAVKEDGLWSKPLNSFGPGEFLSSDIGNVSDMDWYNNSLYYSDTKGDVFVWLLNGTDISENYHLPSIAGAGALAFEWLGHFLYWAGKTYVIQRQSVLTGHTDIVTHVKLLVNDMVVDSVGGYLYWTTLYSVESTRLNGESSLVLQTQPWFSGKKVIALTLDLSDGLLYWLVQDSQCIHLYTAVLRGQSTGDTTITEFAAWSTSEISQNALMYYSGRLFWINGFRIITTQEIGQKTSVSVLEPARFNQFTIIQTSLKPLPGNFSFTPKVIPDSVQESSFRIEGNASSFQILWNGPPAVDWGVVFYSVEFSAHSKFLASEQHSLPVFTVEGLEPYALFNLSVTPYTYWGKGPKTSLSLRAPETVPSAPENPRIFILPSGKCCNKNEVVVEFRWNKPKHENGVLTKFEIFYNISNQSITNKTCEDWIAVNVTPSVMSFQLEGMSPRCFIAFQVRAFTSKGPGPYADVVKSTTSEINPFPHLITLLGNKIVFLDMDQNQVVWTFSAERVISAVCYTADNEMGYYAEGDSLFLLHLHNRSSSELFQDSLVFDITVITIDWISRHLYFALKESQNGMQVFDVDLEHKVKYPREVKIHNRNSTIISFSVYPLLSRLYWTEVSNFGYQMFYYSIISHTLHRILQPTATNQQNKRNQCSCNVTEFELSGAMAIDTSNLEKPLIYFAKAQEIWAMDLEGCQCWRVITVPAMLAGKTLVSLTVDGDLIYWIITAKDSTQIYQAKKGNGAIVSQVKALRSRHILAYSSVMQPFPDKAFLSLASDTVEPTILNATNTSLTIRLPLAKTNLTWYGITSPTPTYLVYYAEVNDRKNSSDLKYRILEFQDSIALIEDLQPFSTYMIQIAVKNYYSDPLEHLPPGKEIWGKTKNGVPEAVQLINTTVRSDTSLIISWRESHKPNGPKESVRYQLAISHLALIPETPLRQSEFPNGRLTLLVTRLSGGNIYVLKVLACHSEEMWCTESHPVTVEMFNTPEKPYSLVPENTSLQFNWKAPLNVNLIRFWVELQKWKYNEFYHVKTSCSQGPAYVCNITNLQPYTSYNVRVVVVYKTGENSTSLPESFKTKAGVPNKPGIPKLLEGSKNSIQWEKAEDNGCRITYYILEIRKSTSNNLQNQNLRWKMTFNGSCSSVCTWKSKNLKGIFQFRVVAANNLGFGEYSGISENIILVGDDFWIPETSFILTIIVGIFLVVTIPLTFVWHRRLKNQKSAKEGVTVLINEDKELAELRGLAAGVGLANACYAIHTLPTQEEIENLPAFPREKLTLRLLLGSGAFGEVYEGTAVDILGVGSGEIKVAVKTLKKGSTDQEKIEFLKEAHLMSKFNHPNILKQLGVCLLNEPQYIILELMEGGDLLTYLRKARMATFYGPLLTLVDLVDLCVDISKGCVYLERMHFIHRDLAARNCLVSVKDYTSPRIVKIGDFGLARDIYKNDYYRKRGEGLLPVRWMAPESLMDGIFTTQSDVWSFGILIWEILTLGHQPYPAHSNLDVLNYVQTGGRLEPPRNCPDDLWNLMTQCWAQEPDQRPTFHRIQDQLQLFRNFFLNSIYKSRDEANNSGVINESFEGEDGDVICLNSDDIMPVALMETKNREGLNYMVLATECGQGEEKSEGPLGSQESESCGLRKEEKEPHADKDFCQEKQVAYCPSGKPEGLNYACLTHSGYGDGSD
T30 sequence (P04049 306-648 Y340D/Y341D limits assumed): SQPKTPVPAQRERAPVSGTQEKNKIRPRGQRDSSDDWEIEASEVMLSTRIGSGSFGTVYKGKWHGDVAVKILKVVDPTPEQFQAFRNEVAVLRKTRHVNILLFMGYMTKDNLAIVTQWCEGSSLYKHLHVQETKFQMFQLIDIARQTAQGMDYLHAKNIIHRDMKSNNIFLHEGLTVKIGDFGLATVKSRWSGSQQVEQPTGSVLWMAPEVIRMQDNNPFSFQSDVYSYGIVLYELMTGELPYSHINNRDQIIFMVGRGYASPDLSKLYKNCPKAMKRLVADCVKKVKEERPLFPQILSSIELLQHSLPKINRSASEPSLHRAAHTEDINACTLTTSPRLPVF

Cc1ccc(O)c(C)c1-n1c(N)c(C(N)=O)c2cc(CCCCCC(=O)NO)c(C)nc21 [PKHD-5]
IC50 ([1]; fluorescence signal-based method): 0.00228 ± 0.00013 µM
fold inhibition of HDAC2 compared with SAHA ([1]; ratio of IC50 values versus SAHA): 4.42 fold
expression of histone H3 acetylation (HepG2 cells): upregulated
expression of p21 (HepG2 cells): upregulated
IC50 (MERTK): > 50 µM
IC50 (EPHA8): > 50 µM
IC50 (INSR): > 50 µM
IC50 (ABL2): > 50 µM
IC50 (KDR): > 50 µM
IC50 (ZAK): > 50 µM
IC50 (BTK): > 50 µM
IC50 (BLK): > 50 µM
IC50 (ROS1): > 50 µM
IC50 (CDK1): > 50 µM
IC50 (INSRR): > 50 µM
IC50 (PDGFRA): > 50 µM
IC50 (DDR1): > 50 µM
IC50 (FGFR4): > 50 µM
IC50 (EPHA7): > 50 µM
IC50 (EPHA2): > 50 µM
IC50 (ALK): > 50 µM
IC50 (IGF1R): > 50 µM
IC50 (EPHA1): > 50 µM
IC50 (LYN): > 50 µM
IC50 (PLK3): > 50 µM
IC50 (FRK): > 50 µM
IC50 (FGFR2): > 50 µM
IC50 (EPHB1): > 50 µM
IC50 (NTRK1): > 50 µM
IC50 (AXL): > 50 µM
IC50 (YES1): > 50 µM
IC50 (PIM1): > 50 µM
IC50 (RAF1): > 50 µM
IC50 (ERBB2): > 50 µM
IC50 (HCK): > 50 µM
IC50 (EPHA4): > 50 µM
IC50 (CSF1R): > 50 µM
IC50 (EPHA3): > 50 µM
